Assays:
A549 cells = test: Wound healing assay in A549 cells (HGF-stimulated); type: cell-based; details: Homo sapiens, last dose that inhibited gap closing by more than 25%, 24 h, read-out: A549 WOUND_HEALING IC50
Description: Wound healing assay in A549 cells. A549 cells (ATCC) are seeded in DMEM low glucose medium complemented with 10% FBS into 24-well plates at a density of 7.5×10^4 cells/well and grown to confluence (48 h). Inhibitors were added to the medium at a range of doses (0.00032-10 uM) for 3 h at which point a gap is introduced by scraping cells with a P1000 pipette tip. Cells are then stimulated to migrate by the addition of HGF (in the form of conditioned medium from 293T cells over-expressing the human HGF gene) and the culture is continued for 24 h. […] For the purpose of standardization, a control is carried on every assay plates.

VEGF receptor KDR = target: T1, VEGF receptor KDR (Homo sapiens, UniProt P35968); test: In vitro receptor tyrosine kinase assay (DELFIA), VEGF receptor KDR; type: biochemical; details: GST-VEGFR2 806-1356, 0.6 uM ATP; read-out: VEGFR IC50
T1 construct: made in house; host or cells: Sf9 cells (Spodoptera frugiperda), baculovirus
Source text: In the case of VEGF receptor KDR a 1.6-kb cDNA corresponding to the catalytic domain of VEGFR2 or KDR (Genbank accession number AF035121 amino acid 806 to 1356) is cloned into the Pst I site of the pDEST20 Gateway vector (Invitrogen) for the production of a GST-tagged version of that enzyme.
The GST-VEGFR2806-1356 protein is expressed in Sf9 cells (Spodoptera frugiperda) upon infection with recombinant baculovirus construct.
The supernatant is loaded onto a GST-agarose column (Sigma) equilibrated with PBS pH 7.3. Following a four column volume (CV) wash with PBS pH 7.3+1% Triton X-100 and 4 CV wash with buffer B (50 mM Tris pH 8.0, 20% glycerol and 100 mM NaCl), bound proteins are step eluted with 5 CV of buffer B supplemented with 5 mM DTT and 15 mM glutathion. […] Final GST-VEGFR2806-1356 protein preparations concentrations are about 0.7 mg/ml with purity approximating 70%.

[1] = target: recombinant human c-Met/HGF receptor (Homo sapiens, UniProt P08581); test: In vitro receptor tyrosine kinase assay (DELFIA), c-Met/HGF receptor
DU145 cells = test: Scatter assay in DU145 cells (HGF-stimulated); type: cell-based; details: Homo sapiens, DU-145, last dose that created an inhibitory effect on scattering, 24 h, read-out: DU145 SCATT. INHIB IC50
Description: Scatter assays in DU145. The scatter assay is performed as described previously (Miura H, Nishimura K, Tsujimura A, Matsumiya K, Matsumoto K, Nakamura T, et al. Effects of hepatocyte growth factor on E-cadherin-mediated cell-cell adhesion in DU145 prostate cancer cells. Urology 2001; 58(6):1064-9) for DU145 prostate carcinoma cells with the indicated modifications. In brief, DU145 cells (ATCC) are seeded in 24-well plates at a density of 7×10^3 cells/well in MEM medium complemented with 10% FBS and cultured for 48 h, to allow the formation of small compact colonies of cells. Inhibitors are subsequently added at a range of doses (0.00032-10 uM) for 3 h. Cells are then stimulated to migrate by the addition of HGF (in the form of conditioned medium from 293T cells over-expressing the human HGF gene) and the culture is continued for another 24 h. The IC50 values is defined as the last dose that created an inhibitory effect on scattering. For the purpose of standardization a control is carried on every test plates for the DU145 scattering assays.

c-Met = target: T2, c-Met (Homo sapiens, UniProt P08581); test: Inhibition of c-Met phosphorylation in MKN45 cells (direct ELISA); type: cell-based; details: 3 h treatment, read-out: CMET ELISA IN MKN45 IC50
T2 construct: endogenous in cells; host or cells: MKN45 gastric carcinoma cells
Source text: The following assay is used to determine inhibition of c-Met phosphorylation.
The c-Met receptor is expressed in numerous cancer cell lines derived from tumors of epithelial origin. In MKN45 gastric carcinoma cells the c-Met gene is amplified, resulting in several-fold overexpression of the receptor and its constitutive activation. For this reason constitutively high levels of ERK1/2 are also detected in these cells, independently of HGF-added stimulation (Smolen G A, Sordella R, Muir B, Mohapatra G, Barmettler A, Archibald H, et al. Amplification of MET may identify a subset of cancers with extreme sensitivity to the selective tyrosine kinase inhibitor PHA-665752. Proc Natl Acad Sci USA 2006). We have developed a sensitive method to follow c-Met phosphorylation in these cells. In previous studies with earlier generation c-Met inhibitors, we established that the IC50s for the inhibition of c-Met phosphorylation were identical using this novel ELISA approach and standard western blot procedure, with antibodies directed against the activating autocatalysis tyrosine residues of c-MET (Tyr Y1230-34-35).
Cell treatments: MKN45 cells are seeded into wells of 96-well plates at a density of 3×10^4 cells/well in RPMI medium supplemented with 10% FBS. HA-TPR-RON expressing 293T (clone 18) cells are seeded into wells of 96-well plates at a density of 3×10^4 cells/well in DMEM medium supplemented with 10% FBS. Cells are grown for 48 h prior to treatments with compounds of interest. Inhibitors are added to the medium in triplicate wells at the indicated doses. After 3 h of treatment, media is aspirated and cells are lysed by one freeze-thaw cycle in 50 μL/well hypotonic lysis buffer (25 mM HEPES pH 7.5, 10 mM NaCl with 1 mM 4-(2-aminoethyl)benzenesulfonyl fluoride hydrochloride, 200 μM sodium orthovanadate, 1 mM sodium fluoride, 10 μg/mL of leupeptin, 10 μg/mL of aprotinin/mL, 1 μg/mL of pepstatin and 50 μg/mL Na-p-tosyl-L-lysine chloromethyl ketone hydrochloride.
Detection of phosphorylated c-Met by direct ELISA: Lysate samples (5 μL) from wells of treatment plates are transferred to 80 μL of binding buffer (25 mM HEPES pH 7.5, 200 mM NaCl) in wells of high binding white polysterene 96-well plates (Corning). After an overnight protein binding incubation at 4° C., lysates are aspirated and wells are blocked for 1 h at 37° C. in TBST supplemented with 5% BSA. Plates are incubated with the primary antibodies anti-phospho-Tyrosine (Millipore, 4G10) diluted 1/15000 in TBST supplemented with 5% BSA for 1 h at room temperature. Plates are washed 3 times on a plate washer (SkanWasher, Molecular Devises), and incubated with the reporter antibody […] (Sigma) diluted 1/15000 in TBST supplemented with 5% BSA, for 1 h at room temperature. Plates are washed 3 times with TBST using on a plate washer and subsequently incubated with chemiluminescent substrate solution (ECL, Roche). Luminescence signal is captured on a Polar Star Optima apparatus (BMG LabTech).
Average values of the triplicate samples are used to prepare IC50 curves using a 4-parameter fit model. These curves are calculated using, for example, GraFit 5.0 software. For assay standardization purpose, an internal control is included on each experimental test plate.

T2 sequence (P08581 25-1390): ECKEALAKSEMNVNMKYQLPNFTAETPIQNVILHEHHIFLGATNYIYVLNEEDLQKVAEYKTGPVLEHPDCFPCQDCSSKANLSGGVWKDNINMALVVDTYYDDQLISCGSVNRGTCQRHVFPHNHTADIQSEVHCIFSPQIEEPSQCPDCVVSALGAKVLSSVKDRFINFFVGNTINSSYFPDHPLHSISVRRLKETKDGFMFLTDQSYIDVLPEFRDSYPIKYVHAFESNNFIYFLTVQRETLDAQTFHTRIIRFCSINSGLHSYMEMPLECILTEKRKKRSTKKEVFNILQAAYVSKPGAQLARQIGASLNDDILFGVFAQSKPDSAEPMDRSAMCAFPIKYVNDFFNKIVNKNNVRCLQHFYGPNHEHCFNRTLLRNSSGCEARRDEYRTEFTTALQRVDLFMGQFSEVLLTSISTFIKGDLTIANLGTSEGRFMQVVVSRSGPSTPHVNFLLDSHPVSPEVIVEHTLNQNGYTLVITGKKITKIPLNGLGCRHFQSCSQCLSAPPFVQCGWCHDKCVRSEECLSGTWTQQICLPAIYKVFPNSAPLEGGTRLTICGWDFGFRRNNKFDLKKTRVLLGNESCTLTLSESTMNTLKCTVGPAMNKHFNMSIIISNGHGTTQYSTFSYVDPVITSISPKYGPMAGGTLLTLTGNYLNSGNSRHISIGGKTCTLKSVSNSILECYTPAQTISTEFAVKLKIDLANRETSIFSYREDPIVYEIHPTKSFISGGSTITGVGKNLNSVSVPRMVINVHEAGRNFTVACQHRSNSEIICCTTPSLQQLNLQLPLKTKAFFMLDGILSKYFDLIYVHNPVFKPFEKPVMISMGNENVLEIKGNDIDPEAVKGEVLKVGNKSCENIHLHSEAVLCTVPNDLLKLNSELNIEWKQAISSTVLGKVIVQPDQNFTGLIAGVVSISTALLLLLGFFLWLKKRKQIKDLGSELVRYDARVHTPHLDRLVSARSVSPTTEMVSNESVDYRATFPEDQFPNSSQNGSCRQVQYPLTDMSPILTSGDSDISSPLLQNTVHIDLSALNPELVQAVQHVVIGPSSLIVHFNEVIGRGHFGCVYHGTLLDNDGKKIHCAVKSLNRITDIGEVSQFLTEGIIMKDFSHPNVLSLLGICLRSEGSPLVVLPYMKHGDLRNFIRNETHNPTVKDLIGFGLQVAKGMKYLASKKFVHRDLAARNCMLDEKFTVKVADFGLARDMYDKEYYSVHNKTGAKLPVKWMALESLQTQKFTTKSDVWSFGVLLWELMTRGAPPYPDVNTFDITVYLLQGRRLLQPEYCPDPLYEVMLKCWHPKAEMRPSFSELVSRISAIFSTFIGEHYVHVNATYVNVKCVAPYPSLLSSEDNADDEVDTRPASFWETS
recombinant human c-Met/HGF receptor, sequence (P08581 1078-1337): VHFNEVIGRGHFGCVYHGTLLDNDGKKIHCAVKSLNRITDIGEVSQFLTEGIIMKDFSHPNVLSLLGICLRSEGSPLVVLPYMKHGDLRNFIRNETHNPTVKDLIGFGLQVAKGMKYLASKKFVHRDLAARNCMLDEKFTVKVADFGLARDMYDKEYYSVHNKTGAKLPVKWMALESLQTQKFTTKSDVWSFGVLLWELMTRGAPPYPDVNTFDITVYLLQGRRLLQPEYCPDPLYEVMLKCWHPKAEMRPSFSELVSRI
T1 sequence (P35968 806-1356): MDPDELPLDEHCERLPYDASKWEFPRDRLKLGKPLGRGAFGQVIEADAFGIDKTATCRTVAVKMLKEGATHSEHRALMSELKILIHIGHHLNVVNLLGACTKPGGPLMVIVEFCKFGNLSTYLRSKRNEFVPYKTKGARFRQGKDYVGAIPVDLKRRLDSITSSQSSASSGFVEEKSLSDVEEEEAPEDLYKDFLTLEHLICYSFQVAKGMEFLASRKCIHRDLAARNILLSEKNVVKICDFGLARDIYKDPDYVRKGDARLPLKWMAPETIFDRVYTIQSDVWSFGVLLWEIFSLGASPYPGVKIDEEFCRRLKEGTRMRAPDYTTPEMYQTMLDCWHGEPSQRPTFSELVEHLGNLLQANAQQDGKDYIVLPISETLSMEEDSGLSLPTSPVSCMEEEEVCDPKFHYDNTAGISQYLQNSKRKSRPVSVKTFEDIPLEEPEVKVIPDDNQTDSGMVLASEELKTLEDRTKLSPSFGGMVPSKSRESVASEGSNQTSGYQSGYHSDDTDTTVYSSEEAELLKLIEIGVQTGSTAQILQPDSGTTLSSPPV

Compound | IC50 (A549 cells) | IC50 (VEGF receptor KDR) | IC50 [1] | IC50 (DU145 cells) | IC50 (c-Met)
COCCNCc1ccc(-c2cc3nccc(Oc4ccc(NC(=S)NC(=O)Cc5ccccc5OC)cc4F)c3s2)cc1 | > 1000 nM | < 250 nM | < 250 nM | 250 to 500 nM | < 250 nM
CSCCNCc1ccc(-c2cc3nccc(Oc4ccc(NC(=S)NC(=O)Cc5ccc(F)cc5)cc4F)c3s2)cc1 | > 1000 nM | < 250 nM | < 250 nM | 250 to 500 nM | < 250 nM
COCCNCc1ccc(-c2cc3nccc(Oc4ccc(NC(=S)NC(=O)Cc5ccccc5)cc4F)c3s2)cn1 [drawing 308] | 250 to 500 nM | 250 to 500 nM | < 250 nM | 250 to 500 nM | < 250 nM
CS(=O)(=O)CCNCc1ccc(-c2cc3nccc(Oc4ccc(NC(=S)NC(=O)Cc5ccccc5)cc4F)c3s2)cc1 | 250 to 500 nM | < 250 nM | < 250 nM | 250 to 500 nM | < 250 nM
COCCNCc1cccc(-c2cc3nccc(Oc4ccc(NC(=S)NC(=O)Cc5ccccc5OC)cc4F)c3s2)c1 | 250 to 500 nM | < 250 nM | < 250 nM | 250 to 500 nM | < 250 nM
COCCNCc1ccc(-c2cc3nccc(Oc4ccc(NC(=O)NC(=O)Cc5ccccc5OC)cc4F)c3s2)cc1 | 500 to 1000 nM | < 250 nM | < 250 nM | > 1000 nM | 500 to 1000 nM
COCCNCc1cccc(-c2cc3nccc(Oc4ccc(NC(=O)C5(C(=O)Nc6ccccc6)CC5)cc4F)c3s2)c1 | < 250 nM | < 250 nM | < 250 nM | < 250 nM | < 250 nM
CN(C)CCOC(=O)N1CC=C(c2cc3nccc(Oc4ccc(NC(=S)NC(=O)Cc5ccccc5)cc4F)c3s2)CC1 | < 250 nM | < 250 nM | < 250 nM | < 250 nM | < 250 nM
COC[C@H](C)NCc1cccc(-c2cc3nccc(Oc4ccc(NC(=S)NC(=O)Cc5ccccc5)cc4F)c3s2)c1 | 250 to 500 nM | < 250 nM | < 250 nM | 250 to 500 nM | < 250 nM
COCCNCCn1cnc(-c2cc3nccc(Oc4ccc(NC(=S)NC(=O)Cc5ccccc5)cc4F)c3s2)c1 | < 250 nM | < 250 nM | < 250 nM | < 250 nM | < 250 nM
CN(C(=O)CC(=O)Nc1ccc(Oc2ccnc3cc(-c4ccc(CNCCS(C)(=O)=O)cc4)sc23)c(F)c1)c1ccccc1 [drawing 347] | 250 to 500 nM | < 250 nM | < 250 nM | 250 to 500 nM | < 250 nM
COCCNCc1ccc(-c2cc3nccc(Oc4ccc(NC(=S)NC(=O)Cc5ccccc5F)cc4F)c3s2)cc1 | 250 to 500 nM | < 250 nM | < 250 nM | 250 to 500 nM | < 250 nM
CS(=O)(=O)CCNCc1cccc(-c2cc3nccc(Oc4ccc(NC(=S)NC(=O)Cc5ccccc5)cc4F)c3s2)c1 | > 1000 nM | < 250 nM | < 250 nM | > 1000 nM | < 250 nM

From US8389541B2, “Inhibitors of protein tyrosine kinase activity” (MethylGene Inc., priority 2007, dated 2013)
